Source: patent US10449248B2, “Nutritional composition for improving the mammalian immune system” (N.V. Nutricia, priority 2008, dated 2019)

Tested on: HepG2 cells
Experiment: Glutathione content of HepG2 cells with or without glutathione precursor amino acids
Assay type: cell-based
Details: in vitro model of normal liver, FIG. 4

Compound | effect on the glutathione homeostasis in liver HepG2 cells
N[C@@H](CS)C(=O)O [cysteine] | positive effect
NC(=O)CC[C@H](N)C(=O)O [glutamine] | positive effect
